Like-named read-outs stand apart in the source and are kept apart here.
Key:
[1] = test system: phosphorylated AKT Ser473 (pAKT S473), mTORC2 activity, PC3 cells; assay: mTOR target engagement assay, immunofluorescent cell-based, pAKT S473 readout (mTORC2 activity)
Summary of the method: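 After blocking, cells were stained overnight at 4 °C with anti-pAKT S473 antibody, then a fluorescent secondary; inhibition was read as reduced fluorescence intensity.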

[2] = test system: phosphorylated 4E-BP1 Thr37/46 (p4E-BP1 Thr37/46), mTORC1 activity, PC3 cells; assay: mTOR target engagement assay, immunofluorescent cell-based, p4E-BP1 Thr37/46 readout (mTORC1 activity); details: read-out: p4E-BP1 Thr37/46 IC50
Summary of the method: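 Seed PC3 cells overnight; treat with compound dilutions for ninety minutes at 37° C; fix with glyoxal and block; stain with anti-p4E-BP1 Thr37/46 overnight at 4° C, then fluorescent secondary; read fluorescence and fit IC50 against DMSO-only controls.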

Compound | IC50 ([1]; Homo sapiens, PC-3, PC3 cells) [µM] | IC50 ([2]; Homo sapiens, PC-3, PC3 cells) [µM] | IC50 ([1]; PC3 cells) [µM] | IC50 ([2]; PC3 cells) [µM]
CC(=O)c1c([C@@H]2C[C@H]3CC[C@@H](C2)N3C(=O)c2nnc[nH]2)nc2c(-c3ccc(C#CCO)nc3)cnn2c1N [Compound 8.56, 1-(5-((1R,3s,5S)-8-(4H-1,2,4-triazole-3-carbonyl)-8-azabicyclo[3.2.1]octan-3-yl)-7-amino-3-(6-(3-hydroxyprop-1-ynyl)pyridin-3-yl)pyrazolo[1,5-a]pyrimidin-6-yl)ethanone] | 0.1 to 1 | 0.1 to 1 | – | –
CC(=O)c1c([C@@H]2C[C@H]3CC[C@@H](C2)N3C(=O)c2nnc[nH]2)nc2c(-c3ccc(C#CC4CC4)nc3)cnn2c1N [Compound 8.60, 1-(5-((1R,3s,5S)-8-(4H-1,2,4-triazole-3-carbonyl)-8-azabicyclo[3.2.1]octan-3-yl)-7-amino-3-(6-(cyclopropylethynyl)pyridin-3-yl)pyrazolo[1,5-a]pyrimidin-6-yl)ethanone] | 0.1 to 1 | 0.1 to 1 | – | –
CC(=O)c1c([C@@H]2C[C@H]3CC[C@@H](C2)N3C(=O)CO)nc2c(-c3ccc(C#CC4CC4)nc3)cnn2c1N [Compound 8.61, 1-((1R,3s,5S)-3-(6-acetyl-7-amino-3-(6-(cyclopropylethynyl)pyridin-3-yl)pyrazolo[1,5-a]pyrimidin-5-yl)-8-azabicyclo[3.2.1]octan-8-yl)-2-hydroxyethanone] | 0.1 to 1 | 0.1 to 1 | – | –
Nc1c(C2CC2)c([C@@H]2C[C@H]3CC[C@@H](C2)N3C(=O)c2nnc[nH]2)nc2c(C#Cc3cccnc3)cnn12 [Compound 8.62, ((1R,3s,5S)-3-(7-amino-6-cyclopropyl-3-(pyridin-3-ylethynyl)pyrazolo[1,5-a]pyrimidin-5-yl)-8-azabicyclo[3.2.1]octan-8-yl)(4H-1,2,4-triazol-3-yl)methanone] | 1 to 10 | 1 to 10 | – | –
CS(=O)(=O)c1c([C@@H]2C[C@H]3CC[C@@H](C2)N3c2nccc(N)n2)nc2c(-c3ccc(-c4ccccc4)nc3)cnn2c1N [Compound 8.63, 5-((1R,3s,5S)-8-(4-aminopyrimidin-2-yl)-8-azabicyclo[3.2.1]octan-3-yl)-6-(methylsulfonyl)-3-(6-phenylpyridin-3-yl)pyrazolo[1,5-a]pyrimidin-7-amine] | 1 to 10 | 1 to 10 | – | –
CS(=O)(=O)c1c([C@@H]2C[C@H]3CC[C@@H](C2)N3c2ncncc2N)nc2c(-c3ccc(-c4ccccc4)nc3)cnn2c1N [Compound 8.64, 5-((1R,3s,5S)-8-(5-aminopyrimidin-4-yl)-8-azabicyclo[3.2.1]octan-3-yl)-6-(methylsulfonyl)-3-(6-phenylpyridin-3-yl)pyrazolo[1,5-a]pyrimidin-7-amine] | 0.1 to 1 | 1 to 10 | – | –
CS(=O)(=O)c1c([C@@H]2C[C@H]3CC[C@@H](C2)N3C#N)nc2c(-c3ccc(-c4ccccc4)nc3)cnn2c1N [Compound 8.70, (1R,3s,5S)-3-(7-amino-6-(methylsulfonyl)-3-(6-phenylpyridin-3-yl)pyrazolo[1,5-a]pyrimidin-5-yl)-8-azabicyclo[3.2.1]octane-8-carbonitrile] | 0.1 to 1 | 1 to 10 | – | –
CC(=O)c1c([C@@H]2C[C@H]3CC[C@@H](C2)N3C#N)nc2c(-c3ccc(-c4ccccc4)nc3)cnn2c1N [Compound 8.71, (1R,3s,5S)-3-(6-acetyl-7-amino-3-(6-phenylpyridin-3-yl)pyrazolo[1,5-a]pyrimidin-5-yl)-8-azabicyclo[3.2.1]octane-8-carbonitrile] | 0.1 to 1 | 0.1 to 1 | – | –
CS(=O)(=O)c1c([C@@H]2C[C@H]3CC[C@@H](C2)N3C(=N)NO)nc2c(-c3ccc(-c4ccccc4)nc3)cnn2c1N [Compound 8.72, (1R,3s,5S)-3-(7-amino-6-(methylsulfonyl)-3-(6-phenylpyridin-3-yl)pyrazolo[1,5-a]pyrimidin-5-yl)-N-hydroxy-8-azabicyclo[3.2.1]octane-8-carboximidamide] | – | – | 1 to 10 | 1 to 10

Reference: patent US9227971B2, “Pyrazolo[1,5-a]pyrimidine compounds as mTOR inhibitors” (Merck Sharp & Dohme Corp., priority 2010, dated 2016)
